Test results as given in US10899738B2 (THE REGENTS OF THE UNIVERSITY OF MICHIGAN, priority 2016, dated 2021).

biological target: menin protein (Homo sapiens (Human), UniProt O00255); experiment: biochemical; assay type: binding; conditions: FP competitive binding; menin protein 4 nM, FAM-MM2 probe 2 nM
In short: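 Test compounds displaced FAM-MM2 (2 nM) from 4 nM menin after 30 min equilibration at room temperature in PBS buffer containing bovine γ-globulin, 4% DMSO and Triton X-100. Binding was followed by fluorescence polarization. Competition curves were fitted by nonlinear regression to give IC50 and Ki.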

Sequence of menin protein (O00255 whole entry): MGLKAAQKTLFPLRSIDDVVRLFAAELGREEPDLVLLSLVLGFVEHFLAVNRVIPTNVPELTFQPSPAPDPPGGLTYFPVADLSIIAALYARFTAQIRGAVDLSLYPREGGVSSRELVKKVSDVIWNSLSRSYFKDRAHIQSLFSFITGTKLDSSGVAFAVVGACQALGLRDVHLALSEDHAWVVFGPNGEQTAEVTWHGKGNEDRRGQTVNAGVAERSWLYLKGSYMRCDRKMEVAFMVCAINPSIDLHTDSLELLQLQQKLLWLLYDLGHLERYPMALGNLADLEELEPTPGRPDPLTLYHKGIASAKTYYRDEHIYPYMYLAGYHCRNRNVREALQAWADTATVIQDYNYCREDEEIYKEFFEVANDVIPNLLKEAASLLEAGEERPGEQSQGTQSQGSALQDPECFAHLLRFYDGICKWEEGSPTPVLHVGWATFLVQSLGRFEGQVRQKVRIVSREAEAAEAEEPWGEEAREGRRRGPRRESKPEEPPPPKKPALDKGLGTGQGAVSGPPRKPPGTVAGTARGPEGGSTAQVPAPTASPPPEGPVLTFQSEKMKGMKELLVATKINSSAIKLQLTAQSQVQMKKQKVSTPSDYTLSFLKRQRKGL

Menin Binding Affinity IC50 (μM) | SMILES
No inhibition | N#Cc1ccc(OCCCNc2ncc(C(O)(c3ccccc3)C3CCCC3)cn2)cc1 (stereo not shown) [compound 124, 4-(3-((5-(cyclopentyl(hydroxy)(phenyl)methyl)pyrimidin-2-yl)amino)propoxy)benzonitrile]
No inhibition | O=S(=O)(c1ccc(-n2ccc(CN3CCC(C4(C5CCCC5)NCCc5c(F)cccc54)CC3)c2)cc1)C1CC1 (stereo not shown) [compound 123, 1-cyclopentyl-1-(1-((1-(4-(cyclopropylsulfonyl)phenyl)-1H-pyrrol-3-yl)methyl)piperidin-4-yl)-5-fluoro-1,2,3,4-tetrahydroisoquinoline]
No inhibition | COC1CCC(C2(C3CCN(CCCOc4ccc(C#N)cc4)CC3)C(=O)NCc3ccccc32)C1 (stereo not shown) [compound 26, 4-(3-(4-(4-(3-methoxycyclopentyl)-3-oxo-1,2,3,4-tetrahydroisoquinolin-4-yl)piperidin-1-yl)propoxy)benzonitrile]

same assay, conditions: FP competitive binding; menin protein 4 nM, FAM-MM2 probe 2 nM; read-out: Menin Binding Affinity IC50

IC50 [µM] | SMILES
4.9 | COC[C@H]1CCC[C@@H]1C(C#N)(c1ccccc1)C1CCN(CC2CN(c3ccc(S(=O)(=O)C4CC4)cc3)C2)CC1 (mixture of isomers) [compound 265, rac-2-(1-((1-(4-(cyclopropylsulfonyl)phenyl)azetidin-3-yl)methyl)piperidin-4-yl)-2-((1S,2S)-2-(methoxymethyl)cyclopentyl)-2-phenylacetonitrile]
1.2 | CN(C)C(=O)N[C@@H]1CCC[C@H]1C(C#N)(c1ccccc1)C1CCN(CC2CN(c3ccc(S(=O)(=O)c4ccncc4)cc3)C2)CC1 (mixture of isomers) [compound 276, rac-3-((1R,2S)-2-(cyano(phenyl)(1-((1-(4-(pyridin-4-ylsulfonyl)phenyl)azetidin-3-yl)methyl)piperidin-4-yl)methyl)cyclopentyl)-1,1-dimethylurea]
0.016 | CC(=O)O[C@H]1CCC[C@@H]1C(C#N)(c1cccc(F)c1)C1CCN(CC2CN(c3ccc(C#N)cc3)C2)CC1 (mixture of isomers) [compound 415, rac-(1S,2R)-2-(cyano(1-((1-(4-cyanophenyl)azetidin-3-yl)methyl)piperidin-4-yl)(3-fluorophenyl)methyl) cyclopentyl acetate]
3.3 | CC(=O)N[C@@H]1CCC[C@H]1C(C#N)(c1ccccc1)C1CCN(CC2CN(c3ccc(S(=O)(=O)C4CC4)cc3)C2)CC1 (mixture of isomers) [compound 282, rac-N-((1R,2S)-2-(cyano(1-((1-(4-(cyclopropylsulfonyl)phenyl)azetidin-3-yl)methyl)piperidin-4-yl)(phenyl)methyl)cyclopentyl) acetamide]
119 | CO[C@H]1CCC[C@@H]1C1(C2CCN(CCCOc3ccc(C(=O)O)cc3)CC2)CNCc2ccccc21 (mixture of isomers) [compound 328, rac-4-(3-(4-(4-((1R,2S)-2-methoxycyclopentyl)-1,2,3,4-tetrahydroisoquinolin-4-yl)piperidin-1-yl)propoxy)benzoic acid]
140 | CO[C@H]1CCC[C@H]1C(C#N)(c1ccccc1)C1CCN(CCCOc2ccc(C#N)cc2)CC1 (mixture of isomers) [compound 176, rac-4-(3-(4-(cyano((1S,2S)-2-methoxycyclopentyl)(phenyl)methyl)piperidin-1-yl)propoxy)benzonitrile]
2.6 | CC(=O)O[C@@H]1CCC[C@H]1C(C#N)(c1ccccc1)C1CCN(CC2CN(c3ccc(S(C)(=O)=O)cc3)C2)CC1 (mixture of isomers) [compound 184, rac-(1R,2S)-2-(cyano(1-((1-(4-(methylsulfonyl)phenyl)azetidin-3-yl)methyl)piperidin-4-yl)(phenyl)methyl)cyclopentyl actate]
13.8 | CC(=O)O[C@@H]1CCC[C@H]1C(C#N)(c1cccc(F)c1)C1CCN(CC2CN(c3ccc(S(=O)(=O)c4ccccc4)cc3)C2)CC1 (mixture of isomers) [compound 313, rac-(1R,2S)-2-(cyano(3-fluorophenyl)(1-((1-(4-(phenylsulfonyl)phenyl)azetidin-3-yl)methyl)piperidin-4-yl)methyl)cyclopentyl acetate]
1.61 | CC(=O)O[C@H]1CCC[C@@H]1C(C#N)(c1cccc(C(F)(F)F)c1)C1CCN(CC2CN(c3ccc(C#N)cc3)C2)CC1 (mixture of isomers) [compound 417, rac-(1S,2R)-2-(cyano(1-((1-(4-cyanophenyl)azetidin-3-yl)methyl)piperidin-4-yl)(3-(trifluoromethyl)phenyl)methyl)cyclopentyl acetate]
11.4 | CC(=O)O[C@@H]1CCC[C@H]1C(C#N)(c1ccccc1F)C1CCN(CCCOc2ccc(C#N)cc2)CC1 (mixture of isomers) [compound 309, rac-(1R,2S)-2-(cyano(1-(3-(4-cyanophenoxy)propyl)piperidin-4-yl)(2-fluorophenyl)methyl) cyclopentyl acetate]
0.018 | N#CC(c1ccccc1)(C1CCN(CC2CN(c3ccc(S(=O)(=O)c4ccncc4)cc3)C2)CC1)[C@H]1CCC[C@@H]1OC(=O)C1CC1 (mixture of isomers) [compound 197, rac-(1S,2R)-2-(cyano(phenyl)(1-((1-(4-(pyridin-4-ylsulfonyl)phenyl)azetidin-3-yl)methyl)piperidin-4-yl)methyl)cyclopentyl cyclopropanecarboxylate]
0.014 | CNC(=O)O[C@H]1CCC[C@@H]1C(C#N)(c1ccccc1)C1CCN(CC2CN(c3ccc(S(=O)(=O)C4CC4)cc3)C2)CC1 (mixture of isomers) [compound 226, rac-(1S,2R)-2-(cyano(1-((1-(4-(cyclopropylsulfonyl)phenyl)azetidin-3-yl)methyl)piperidin-4-yl)(phenyl)methyl)cyclopentyl methylcarbamate]
1.2 | COC(=O)N[C@@H]1CCC[C@H]1C(C#N)(c1ccccc1)C1CCN(CC2CN(c3ccc(S(=O)(=O)c4cnn(C)c4)cc3)C2)CC1 (mixture of isomers) [Cpd. No. 350, methyl (rac-(1R,2S)-2-(cyano(1-((1-(4-((1-methyl-1H-pyrazol-4-yl)sulfonyl)phenyl)azetidin-3-yl)methyl)piperidin-4-yl)(phenyl)methyl)cyclopentyl)carbamate]

SMILES | IC50 [µM]
C=C(C)CC1(C2CCN(CCCOc3ccc(C#N)cc3)CC2)NCCc2ccccc21 (stereo not shown) [compound 173, 4-(3-(4-(1-(2-methylallyl)-1,2,3,4-tetrahydroisoquinolin-1-yl)piperidin-1-yl)propoxy)benzonitrile] | 3
CCS(=O)(=O)c1ccc(N2CC(CN3CCC(C4(CC(C)(C)C)NCCc5ccccc54)CC3)C2)cc1 (stereo not shown) [compound 248, 1-(1-((1-(4-(ethylsulfonyl)phenyl)azetidin-3-yl)methyl)piperidin-4-yl)-1-neopentyl-1,2,3,4-tetrahydroisoquinoline] | 0.8
N#Cc1ccc(OCCCN2CCC(C3(C4CCc5ccccc54)NCCc4ccccc43)CC2)cc1 (stereo not shown) [compound 244, 4-(3-(4-(1-(2,3-dihydro-1H-inden-1-yl)-1,2,3,4-tetrahydroisoquinolin-1-yl)piperidin-1-yl)propoxy)benzonitrile] | 2.3
O=S(=O)(c1ccncc1)c1ccc(N2CC(CN3CCC(C4(C5CCCC5)CN(CCN5CCOCC5)Cc5ccccc54)CC3)C2)cc1 (stereo not shown) [compound 54, 4-(2-(4-cyclopentyl-4-(1-((1-(4-(pyridin-4-ylsulfonyl)phenyl)azetidin-3-yl)methyl)piperidin-4-yl)-3,4-dihydroisoquinolin-2(1H)-yl)ethyl)morpholine] | 0.011
CN1CCc2ccccc2C1(C1CCCC1)C1CCN(CCCOc2ccc(C#N)cc2)CC1 (stereo not shown) [compound 28, 4-(3-(4-(1-cyclopentyl-2-methyl-1,2,3,4-tetrahydroisoquinolin-1-yl)piperidin-1-yl)propoxy)benzonitrile] | 0.379
N#Cc1ccc(N2CCCC(CN3CCC(C4(C5CCCC5)NCCc5ccccc54)CC3)C2)cc1 (stereo not shown) [compound 115, 4-(3-((4-(1-cyclopentyl-1,2,3,4-tetrahydroisoquinolin-1-yl)piperidin-1-yl)methyl)piperidin-1-yl)benzonitrile] | 4
CC(=O)N1CCCC(C(C#N)(c2ccccc2)C2CCN(CCCOc3ccc(C#N)cc3)CC2)C1 (stereo not shown) [compound 307, 4-(3-(4-((1-acetylpiperidin-3-yl)(cyano)(phenyl)methyl)piperidin-1-yl)propoxy)benzontrile] | 30.6
Cc1nccn1CC(c1ccccc1)(C1CCCC1)C1CCN(CC2CN(c3ccc(S(=O)(=O)C4CC4)cc3)C2)CC1 (stereo not shown) [compound 42, 4-(1-cyclopentyl-2-(2-methyl-1H-imidazol-1-yl)-1-phenylethyl)-1-((1-(4-(cyclopropylsulfonyl)phenyl)azetidin-3-yl)methyl)piperidine] | 0.029
CC(=O)NCC(c1ccccc1)(C1CCCC1)C1CCN(CCCOc2ccc(C#N)cc2)CC1 (stereo not shown) [compound 40, N-(2-(1-(3-(4-cyanophenoxy)propyl)piperidin-4-yl)-2-cyclopentyl-2-phenylethyl)acetamide] | 0.817
O=C(Cc1ccc(S(=O)(=O)C2CC2)cc1)N1CCc2cc(C3(C4CCCC4)NCCc4ccccc43)ccc2C1 (stereo not shown) [compound 100, 1-(1-cyclopentyl-1,2,3,3′,4,4′-hexahydro-[1,6′-biisoquinolin]-2′-(1′H)-yl)-2-(4-(cyclopropylsulfonyl)phenyl) ethan-1-one] | 4.7
Cc1nccn1CC(c1ccccc1)(C1CCCC1)C1CCN(CCCOc2ccc(C#N)cc2)CC1 (stereo not shown) [compound 41, 4-(3-(4-(1-cyclopentyl-2-(2-methyl-1H-imidazol-1-yl)-1-phenylethyl)piperidin-1-yl)propoxy)benzonitrile] | 0.166
N#Cc1cc2ccc(C(=O)N3CCC(CC4(C5CCCC5)NCCc5ccccc54)CC3)cc2[nH]1 (stereo not shown) [compound 118, 6-(4-((1-cyclopentyl-1,2,3,4-tetrahydroisoquinolin-1-yl)methyl)piperidine-1-carbonyl)-1H-indole-2-carbonitrile] | 21.8
